The values that follow come from patent US9062071B2, “Substituted piperidines as HDM2 inhibitors” (Merck Sharp & Dohme Corp, priority 2011, dated 2015).

The assay concerns the target HDM2 protein (Homo sapiens, UniProt Q00987). In words: fluorescence polarization screening assay (FP IC50). The assay is classed as binding. The following applies: class symbols. As for the experimental part:
The compounds were evaluated to determine activity at the HDM2 protein by known methods such as the fluorescence polarization screening assay that measures the inhibitory concentration that achieves 50% of maximal activity (FP IC50) and the dissociation constant for inhibitor binding (FP Ki). [Zhang et al., J. Analytical Biochemistry 331: 138-146 (2004)].
Background: Polarisation of emitted light reports the rotation of a fluorescent probe.

What is called IC50 is the point on the concentration scale where inhibition reaches its midpoint. Low values mean inhibition by little substance, high ones a need for much substance.

Chain of HDM2 protein (Q00987 whole entry): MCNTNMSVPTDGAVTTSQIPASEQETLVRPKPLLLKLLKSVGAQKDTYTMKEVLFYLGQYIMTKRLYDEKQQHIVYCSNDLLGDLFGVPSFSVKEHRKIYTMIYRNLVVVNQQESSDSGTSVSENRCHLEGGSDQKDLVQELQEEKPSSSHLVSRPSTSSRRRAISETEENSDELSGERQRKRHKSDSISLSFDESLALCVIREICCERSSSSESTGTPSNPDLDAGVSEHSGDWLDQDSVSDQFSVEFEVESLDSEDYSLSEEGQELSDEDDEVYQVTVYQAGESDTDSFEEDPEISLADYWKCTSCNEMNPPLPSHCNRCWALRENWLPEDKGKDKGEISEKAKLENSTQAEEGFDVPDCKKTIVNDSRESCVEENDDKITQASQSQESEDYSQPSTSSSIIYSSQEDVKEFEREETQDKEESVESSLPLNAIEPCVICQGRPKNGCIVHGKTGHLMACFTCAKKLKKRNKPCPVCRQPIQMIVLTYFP

`CCC[C@H]1N(C(=O)c2ncccc2C(F)(F)F)CCC[C@@]1(Oc1csc(C(F)(F)F)c1)C(=O)N1CCc2cc(Cl)ccc2C1CC(C)C` (stereo partly drawn) [Compound A176, 6-chloro-1-(2-methylpropyl)-2-{[(2R,3S)-2-propyl-1-{[3-(trifluoromethyl)pyridin-2-yl]carbonyl}-3-{[5-(trifluoromethyl)thiophen-3-yl]oxy}piperidin-3-yl]carbonyl}-1,2,3,4-tetrahydroisoquinoline] came in with an IC50 of 101 to 20000 nM.

In turn, `CCC[C@H]1N(C(=O)c2ncccc2C(F)(F)F)CCC[C@@]1(Oc1csc(C(F)(F)F)c1)C(=O)N1CCc2cc(F)ccc2C1CC(=O)O` (stereo partly drawn) [Compound A52, (6-fluoro-2-{[(2R,3S)-2-propyl-1-{[3-(trifluoromethyl)pyridin-2-yl]carbonyl}-3-{[5-(trifluoromethyl)thiophen-3-yl]oxy}piperidin-3-yl]carbonyl}-1,2,3,4-. tetrahydroisoquinolin-1-yl)acetic acid] gave an IC50 of 1 to 100 nM.

`CCC[C@H]1N(C(=O)c2ncccc2C(F)(F)F)CCC[C@@]1(Oc1csc(C(F)(F)F)c1)C(=O)N1CCc2cc(Cl)ccc2C1C(=O)O` (stereo partly drawn) [Compound A100, 6-chloro-2-{[(2R,3S)-2-propyl-1-{[3-(trifluoromethyl)pyridin-2-yl]carbonyl}-3-{[5-(trifluoromethyl)thiophen-3-yl]oxy}piperidin-3-yl]carbonyl}-1,2,3,4-tetrahydroisoquinoline-1-carboxylic acid] registered an IC50 of 1 to 100 nM.

As to `CCC[C@H]1N(C(=O)c2ncccc2C(F)(F)F)CCC[C@@]1(Oc1csc(C(F)(F)F)c1)C(=O)N1CCc2cc(F)ccc2C1CCCO` (stereo partly drawn) [Compound A54, 3-(6-fludro-2-{[(2R,3S)-2-propyl-1-{[3-(trifluoromethyl)pyridin-2-yl]carbonyl}-3-{[5-(trifluoromethyl)thiophen-3-yl]oxy}piperidin-3-yl]carbonyl}-1,2,3,4-tetrahydroisoquinolin-1-yl)propan-1-ol], the IC50 lay in the range of 101 to 20000 nM.

In turn, `O=C(c1ncccc1C(F)(F)F)N1CCC[C@@](Oc2csc(C(F)(F)F)c2)(C(=O)N2CCc3cc(F)ccc3C2)[C@H]1CCN1CCOCC1` [Compound A7, 6-fluoro-2-{[(2R,3S)-2-(2-morpholin-4-ylethyl)-1-{[3-(trifluoromethyl)pyridin-2-yl]carbonyl}-3-{[5-(trifluoromethyl)thiophen-3-yl]oxy}piperidin-3-yl]carbonyl}-1,2,3,4-tetrahydroisoquinoline] had an IC50 of 1 to 100 nM.

Turning to `CCC[C@H]1N(C(=O)c2ncccc2C(F)(F)F)CCC[C@@]1(Oc1csc(C(F)(F)F)c1)C(=O)N1CCc2cc(Cl)ccc2C1CCCC(=O)O` (stereo partly drawn) [Compound A74, 4-(6-chloro-2-{[(2R,3S)-2-propyl-1-{[3-(trifluoromethyl)pyridin-2-yl]carbonyl}-3-{[5-(trifluoromethyl)thiophen-3-yl]oxy}piperidin-3-yl]carbonyl}-1,2,3,4-tetrahydroisoquinolin-1-yl)butanoic acid], the IC50 lay in the range of 1 to 100 nM.

With `CCC[C@H]1N(C(=O)c2ncccc2C(F)(F)F)CCC[C@@]1(Oc1csc(C(F)(F)F)c1)C(=O)N1Cc2ccc(Cl)cc2C[C@@H]1COCC(=O)O` [Compound A38, {[(3R)-6-chloro-2-{[(2R,3S)-2-propyl-1-{[3-(trifluoromethyl)pyridin-2-yl]carbonyl}-3-{[5-(trifluoromethyl)thiophen-3-yl]oxy}piperidin-3-yl]carbonyl}-1,2,3,4-tetrahydroisoquinolin-3-yl]methoxy}acetic acid], the IC50 was in the range of 1 to 100 nM.

`CCC[C@H]1N(C(=O)c2ncccc2C(F)(F)F)CCC[C@@]1(Oc1csc(C(F)(F)F)c1)C(=O)N1CCc2sc(C(=O)OCC)cc2C1` [Compound A9, ethyl 5-{[(2R,3S)-2-propyl-1-{[3-(trifluoromethyl)pyridin-2-yl]carbonyl}-3-{[5-(trifluoromethyl)thiophen-3-yl]oxy}piperidin-3-yl]carbonyl}-4,5,6,7-tetrahydrothieno[3,2-c]pyridine-2-carboxylate]: the IC50 fell in the range of 101 to 20000 nM.
